In US9212168B2 (priority 2011, dated 2015):

How the values were obtained:
HCV genotype 1b replicon = HCV genotype 1b replicon assay (Renilla luciferase readout); assay type: cell-based, hepatitis C virus; settings: for Genotype 1b: HCV genotype 1b replicon; for EC50: Hepatitis C virus, read-out: Genotype 1b
Text: Assay 1: HCV Genotype 1b Replicon Assay
The HCV genotype 1b replicon cell line was obtained from Apath LLC (Brooklyn, N.Y.) (APC144; Huh7 cell background). This subgenomic replicon contains the N-terminus of the HCV core protein fused to the neomycin-resistance selectable marker. The EMCV IRES lies downstream and drives expression of humanized Renilla luciferase fused to the non-structural proteins NS3-NS5B. This cell line was used to determine compound potency using the luciferase activity readout as a measurement of compound inhibition of replicon levels.
Cells were grown at 37° C. in a 5% CO2 humidified incubator in DMEM (Invitrogen) with 10% FBS (HyClone), 1×NEAA (Invitrogen), 1× Pen-Strep (Invitrogen), and 500 μg/mL G418 (Invitrogen). On day 1 of the assay, cells were plated at 10,000 cells/well in white 96-well tissue culture plates (Costar) in 200 μL media lacking G418. Four hours later, once the cells have adhered, the media was removed and replaced with media (no G418) containing dose-responses of test compounds. Compounds were initially diluted in DMSO and then diluted another 200× in media to bring the final DMSO concentration down to 0.5%. The cells were incubated with test compounds for 48 hours. At the end of the incubation period, media and compound were removed from the plates and the luciferase activity was determined using Promega Renilla-Glo reagents.
To analyze the data, the luciferase activity was plotted vs. the compound concentration, and EC50 values were determined from a 4-parameter robust fit model with the GraphPad Prism software package (GraphPad Software, Inc., San Diego, Calif.). Results are expressed as the negative decadic logarithm of the EC50 value, pEC50.
Test compounds having a higher pEC50 value in this assay show greater inhibition of HCV genotype 1b replication.

HCV genotype 1a replicon = HCV genotype 1a replicon assay (NS3 protease activity readout); assay type: cell-based, hepatitis C virus; settings: for Genotype 1a: HCV genotype 1a replicon; for EC50: Hepatitis C virus, read-out: Genotype 1a, HCV genotype 1a replicon
Method in brief: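 EC50 values came from a 4-parameter robust fit of fluorescence (ex 340, em 509 nm) produced by NS3-specific protease in lysates, assayed with 15 μM FRET substrate for 20 min at 37° C, after 48 or 72 hours of compound exposure (0.5% DMSO) of Huh7.5-derived APC89 genotype 1a replicon cells.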

| Structure (SMILES) | Genotype 1b (HCV genotype 1b replicon) | Genotype 1a (HCV genotype 1a replicon) | EC50 (HCV genotype 1b replicon) [nM] | EC50 (HCV genotype 1a replicon) [nM] |
| --- | --- | --- | --- | --- |
| CNC(=O)N1C[C@@H](C)N(c2ccc(NC(=O)c3ccc(-c4ccc(-c5nc([C@@H]6C[C@H](C)CN6C(=O)[C@@H](NC(=O)OC)C(C)C)[nH]c5Cl)cc4)c(OC(F)(F)F)c3)cn2)C[C@@H]1C [Example 4-12] | D (D represents pEC50>10 (EC50<0.1 nM)) | D (D represents pEC50>10 (EC50<0.1 nM)) | – | – |
| COC(=O)N[C@H](C(=O)N1C[C@@H](C)C[C@H]1c1nc(-c2ccc(-c3ccc(C(=O)Nc4ccc(N5C[C@H](C)N(C(=O)[C@H]6CCCN6C(=O)C6CC6)C[C@H]5C)nc4)cc3OC(F)(F)F)cc2)c[nH]1)C(C)C [Example 4-18] | D (D represents pEC50>10 (EC50<0.1 nM)) | D (D represents pEC50>10 (EC50<0.1 nM)) | – | – |
| COC(=O)N[C@H](C(=O)N1C[C@@H](C)C[C@H]1c1nc(-c2ccc(-c3ccc(C(=O)Nc4ccc(N5CCN(C(=O)C(C)(C)C)C[C@H]5C)nc4)cc3OC(F)(F)F)cc2)c(F)[nH]1)C(C)C [Example 4-42] | D (D represents pEC50>10 (EC50<0.1 nM)) | D (D represents pEC50>10 (EC50<0.1 nM)) | – | – |
| COC[C@H]1CN(c2ccc(C(=O)Nc3cc(OC(F)(F)F)c(-c4ccc(-c5c[nH]c([C@@H]6C[C@H](C)CN6C(=O)[C@@H](NC(=O)OC)C6CCOCC6)n5)cc4)cc3Cl)cn2)CCN1C(=O)C(C)(C)C [Example 20-7] | D (D represents pEC50>10 (EC50<0.1 nM)) | D (D represents pEC50>10 (EC50<0.1 nM)) | – | – |
| COC(=O)NC(C(=O)N1CC(C)CC1c1nc(-c2ccc(-c3ccc(NC(=O)c4ccc(N5CCN(C(=O)C(C)(C)CO)CC5C)nc4)cc3OC(F)(F)F)cc2)c[nH]1)C(C)OC (centres unmarked) [Example 13-31] | D (D represents pEC50>10 (EC50<0.1 nM)) | D (D represents pEC50>10 (EC50<0.1 nM)) | – | – |
| COC(=O)N[C@H](C(=O)N1C[C@@H](C)C[C@H]1c1nc(-c2ccc(-c3cc(Cl)c(NC(=O)c4ccc(N5CCN(C(=O)C(C)(C)C)C[C@H]5C)nc4)cc3OC(F)(F)F)cc2)c[nH]1)C1C[C@@H](C)O[C@@H](C)C1 (some centres unmarked) [Example 13-42] | – | – | < 0.1 | < 0.1 |
| COC(=O)NC(C(=O)N1CC(C)CC1c1nc(-c2ccc(-c3ccc(NC(=O)c4ccc(N5CCN(C(=O)C(C)(C)C)CC5C)nc4)cc3OC(F)(F)F)cc2)c[nH]1)C1CCOCC1 (centres unmarked) [Example 13-12] | D (D represents pEC50>10 (EC50<0.1 nM)) | D (D represents pEC50>10 (EC50<0.1 nM)) | – | – |
| COCC(C)(C)C(=O)N1CCN(c2ccc(C(=O)Nc3cc(OC(F)(F)F)c(-c4ccc(-c5c[nH]c([C@@H]6C[C@H](C)CN6C(=O)[C@@H](NC(=O)OC)C(C)C)n5)cc4)cc3Cl)cn2)[C@H](C)C1 [Example 12-32] | – | – | < 0.1 | < 0.1 |
| COC(=O)NC(C(=O)N1CC(OC)CC1c1nc(-c2ccc(-c3ccc(NC(=O)c4ccc(N5CCN(C(=O)C(C)(C)CO)CC5C)nc4)cc3OC(F)(F)F)cc2)c[nH]1)C(C)O (centres unmarked) [Example 16-15] | D (D represents pEC50>10 (EC50<0.1 nM)) | C (C represents pEC50 between and 9 and about 10, (EC50 between 1 nM and 0.1 nM)) | – | – |
| COC(=O)N[C@H](C(=O)N1C[C@@H](SC)C[C@H]1c1nc(-c2ccc(-c3cc(Cl)c(C(=O)Nc4ccc(N5CCN(C(=O)C(C)(C)C)C[C@H]5C)nc4)cc3OC(F)(F)F)cc2)c[nH]1)C(C)C [Example 5-3] | – | – | < 0.1 | < 0.1 |
| COC(=O)NC(CC1CCOCC1)C(=O)N1C[C@@H](C)C[C@H]1c1nc(-c2ccc(-c3cc(Cl)c(NC(=O)c4ccc(N5CCN(C(=O)C(C)(C)C)C[C@H]5C)nc4)cc3OC(F)(F)F)cc2)c[nH]1 (some centres unmarked) [Example 13-34] | – | – | < 0.1 | < 0.1 |
| CNC(=O)N1CCN(c2ccc(NC(=O)c3ccc(-c4ccc(-c5c[nH]c([C@@H]6C[C@@H]7CCCC[C@@H]7N6C(=O)[C@@H](NC(=O)OC)C(C)C)n5)cc4)c(OC(F)(F)F)c3)cn2)[C@H](C)C1 [Example 6-11] | – | – | < 0.1 | 0.1 to 1 |
| COC(=O)N[C@H](C(=O)N1C[C@@H](C)C[C@H]1c1nc(-c2ccc(-c3ccc(C(=O)Nc4ccc(N5CCN(C(=O)C(C)(C)C)C[C@H]5C)nc4)cc3OC(F)(F)F)cc2)c(Cl)[nH]1)C1CCOCC1 [Example 22-6] | D (D represents pEC50>10 (EC50<0.1 nM)) | D (D represents pEC50>10 (EC50<0.1 nM)) | – | – |
| COC(=O)N[C@H](C(=O)N1C[C@@H](N(C)C)C[C@H]1c1nc(-c2ccc(-c3ccc(NC(=O)c4ccc(N5CCN(C(=O)C6CC6)C[C@H]5C)nc4)cc3)cc2)c[nH]1)C(C)C [Example 6, ((S)-1-{(2S,4S)-2-[4-(4′-{[6-((R)-4-Cyclopropanecarbonyl-2-methyl-piperazin-1-yl)-pyridine-3-carbonyl]-amino}-biphenyl-4-yl)-1H-imidazol-2-yl]-4-dimethylamino-pyrrolidine-1-carbonyl}-2-methyl-propyl)-carbamic acid methyl ester] | – | – | < 0.1 | 0.1 to 1 |
| COC(=O)NC(C(=O)N1CC(C)CC1c1nc(-c2ccc(-c3ccc(NC(=O)c4ccc(N5CCN(C(=O)C(C)(C)CO)CC5C)nc4)cc3OC(F)(F)F)cc2)c[nH]1)C(C)C (centres unmarked) [Example 13-29] | D (D represents pEC50>10 (EC50<0.1 nM)) | D (D represents pEC50>10 (EC50<0.1 nM)) | – | – |
| COC(=O)N[C@H](C(=O)N1C[C@@H](C)C[C@H]1c1nc(-c2ccc(-c3ccc(C(=O)Nc4ccc(N5C[C@H](C)N(C(=O)[C@H]6CCCN6C(=O)NC(C)C)C[C@H]5C)nc4)cc3OC(F)(F)F)cc2)c[nH]1)C(C)C [Example 4-20] | D (D represents pEC50>10 (EC50<0.1 nM)) | C (C represents pEC50 between and 9 and about 10, (EC50 between 1 nM and 0.1 nM)) | – | – |
| COC(=O)N[C@H](C(=O)N1C[C@@H](OC)C[C@H]1c1nc(-c2ccc(-c3ccc(NC(=O)c4ccc(N5CCN(C(=O)C(C)(C)C)C[C@H]5C)nc4)cc3OC(F)(F)F)cc2)c[nH]1)C(C)C [Example 27-8] | D (D represents pEC50>10 (EC50<0.1 nM)) | D (D represents pEC50>10 (EC50<0.1 nM)) | – | – |
| COCC(=O)N1CCC[C@@]1(C)C(=O)N1CCN(c2ccc(NC(=O)c3ccc(-c4ccc(-c5c[nH]c([C@@H]6C[C@H](SC)CN6C(=O)[C@@H](NC(=O)OC)C(C)C)n5)cc4)c(OC(F)(F)F)c3)cn2)[C@H](C)C1 [Example 6-10] | – | – | < 0.1 | < 0.1 |
| COC(=O)N[C@H](C(=O)N1C[C@@H](OC)C[C@H]1c1nc(-c2ccc(-c3cc(Cl)c(C(=O)Nc4ccc(N5CCN(C(=O)C(C)(C)C)C[C@H]5C)nc4)cc3OC(F)(F)F)cc2)c[nH]1)C1CCOCC1 [Example 22-16] | D (D represents pEC50>10 (EC50<0.1 nM)) | D (D represents pEC50>10 (EC50<0.1 nM)) | – | – |
| COC(=O)N[C@H](C(=O)N1C[C@@H](C)C[C@H]1c1nc(-c2ccc(-c3ccc(C(=O)Nc4ccc(N5CCN(C(=O)C(C)(C)CO)C[C@H]5C)nc4)cc3OC(F)(F)F)cc2)c(Cl)[nH]1)C1CCOCC1 [Example 22-8] | D (D represents pEC50>10 (EC50<0.1 nM)) | D (D represents pEC50>10 (EC50<0.1 nM)) | – | – |
| COC(=O)N[C@H](C(=O)N1C[C@@H](C)C[C@H]1c1nc(-c2ccc(-c3cc(F)c(NC(=O)c4ccc(N5CCN(C(=O)C(C)(C)CO)C[C@H]5C)nc4)cc3OC(F)(F)F)cc2)c[nH]1)C1CCOCC1 [Example 13-27] | – | – | < 0.1 | < 0.1 |
| COC(=O)N[C@H](C(=O)N1C[C@@H](SC)C[C@H]1c1nc(-c2ccc(-c3ccc(C(=O)Nc4ccc(N5CCN(C(=O)[C@]6(C)CCCN6C(=O)[C@@H](NC(=O)OC)C(C)C)C[C@H]5C)nc4)cc3OC(F)(F)F)cc2)c[nH]1)C(C)C [Example 6-9] | – | – | < 0.1 | < 0.1 |
| COC(=O)N[C@H](C(=O)N1C[C@@H](OC)C[C@H]1c1nc(-c2ccc(-c3cc(Cl)c(NC(=O)c4ccc(N5CCN(C(=O)C(C)(C)C)C[C@H]5C)nc4)cc3OC(F)(F)F)cc2)c[nH]1)[C@H](C)O [Example 16-2] | D (D represents pEC50>10 (EC50<0.1 nM)) | D (D represents pEC50>10 (EC50<0.1 nM)) | – | – |
| COC(=O)N[C@H](C(=O)N1C[C@@H](OC)C[C@H]1c1nc(-c2ccc(-c3cc(Cl)c(NC(=O)c4ccc(N5C[C@H](C)N(C(=O)[C@]6(C)CCCN6C(=O)OC)C[C@H]5C)nc4)cc3OC(F)(F)F)cc2)c[nH]1)C1CCOCC1 [Example 28-18] | D (D represents pEC50>10 (EC50<0.1 nM)) | D (D represents pEC50>10 (EC50<0.1 nM)) | – | – |
| COC(=O)N[C@H](C(=O)N1C[C@@H](C)C[C@H]1c1nc(-c2ccc(-c3cc(F)c(NC(=O)c4ccc(N5CCN(C(=O)C(C)(C)C)C[C@H]5C)nc4)cc3F)cc2)c[nH]1)C(C)C [Example 1-82] | D (D represents pEC50>10 (EC50<0.1 nM)) | C (C represents pEC50 between and 9 and about 10, (EC50 between 1 nM and 0.1 nM)) | – | – |
